This is an account of results in ChEMBL document CHEMBL1147482, “Novel and potent transforming growth factor beta type I receptor kinase domain inhibitor: 7-amino 4-(2-pyridin-2-yl-5,6-dihydro-4H-pyrrolo[1,2-b]pyrazol-3-yl)-quinolines” (Bioorg Med Chem Lett, 2004).

Experiment [1] concerns NIH3T3. The experiment is described as follows: Inhibitory activity tested in NIH 3T3 cells. Conditions: Mus musculus. It counts as functional, cell-based.
The target of experiment [2] is Mitogen-activated protein kinase 14 (Homo sapiens, UniProt Q16539). The experiment is described as follows: Inhibitory activity against Mitogen-activated protein kinase p38.
Mitogen-activated protein kinase 14, sequence (Q16539 whole entry): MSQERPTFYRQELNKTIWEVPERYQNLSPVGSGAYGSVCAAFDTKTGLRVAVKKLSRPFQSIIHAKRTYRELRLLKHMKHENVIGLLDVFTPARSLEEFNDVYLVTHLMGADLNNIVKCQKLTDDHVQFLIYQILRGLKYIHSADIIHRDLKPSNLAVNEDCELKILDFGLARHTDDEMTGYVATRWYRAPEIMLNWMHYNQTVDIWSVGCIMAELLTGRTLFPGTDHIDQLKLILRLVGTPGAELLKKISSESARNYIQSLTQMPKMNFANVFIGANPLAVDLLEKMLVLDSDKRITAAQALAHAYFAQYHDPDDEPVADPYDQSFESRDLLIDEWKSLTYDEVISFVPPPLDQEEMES
Experiment [3] can be described thus: Inhibitory activity against TGF-beta dependent luciferase production in mink lung cells p3TP Lux. It counts as functional, cell-based.

In general, IC50 refers to the midpoint of a concentration-inhibition curve.

On to `Cc1cccc(-c2nn3c(c2-c2ccc(F)cc2)CCC3)n1`, for which the IC50 in experiment [1] is 0.339 µM; in experiment [2], > 20 µM; in experiment [3] it was 0.096 µM.

Regarding `Cc1cccc(-c2n[nH]cc2-c2ccc(O)cc2)n1`, the IC50 in experiment [2] turned out to be 31 µM.

In the case of `CC(C)c1cccc(-c2nn3c(c2-c2ccnc4ccccc24)CCC3)n1`, the figures for the IC50 in experiment [1], in experiment [2] and in experiment [3] were 2 µM, 15 µM and 2 µM, respectively.

For the compound `Cc1ccc(-c2c(-c3cccc(C)n3)nn3c2CCC3)cc1`, the IC50 in experiment [1] and in experiment [3] was > 20 µM each time.

For `CCSc1ccc2c(-c3c(-c4ccccn4)nn4c3CCC4)ccnc2c1`, the IC50 in experiment [1] stood at 0.326 µM; in experiment [2], 1.6 µM; in experiment [3] it was 0.285 µM.

On to `Fc1ccc(-c2nn3c(c2-c2ccnc4ccccc24)CCC3)nc1`, for which the IC50 in experiment [1] came to 0.664 µM; in experiment [2] it was 11 µM; in experiment [3], 0.475 µM.

Turning to `COc1ccc(-c2c(-c3ccccn3)nn3c2CCC3)cc1`, the IC50 in experiment [1] was 4.71 µM; in experiment [3], 6.83 µM.

For the compound `CCS(=O)(=O)c1ccc2c(-c3c(-c4ccccn4)nn4c3CCC4)ccnc2c1`, the results for the IC50 in experiment [2] and in experiment [3] were 9.8 µM and > 20 µM, respectively.

With `c1ccc(-c2nn3c(c2-c2ccnc4ccccc24)CCC3)nc1`, the values for the IC50 in experiment [1], in experiment [2] and in experiment [3] were 51 µM, 7.9 µM and 0.345 µM, respectively.

Take `Fc1ccc(-c2c(-c3cccc(C(F)(F)F)n3)nn3c2CCC3)cc1`: the IC50 in experiment [1] came to 1.2 µM; in experiment [3], 2.55 µM.

In the case of `COc1ccc(-c2c(-c3cccc(C)n3)nn3c2CCC3)cc1`, the concentration for half-maximal inhibition (IC50) is 0.397 µM in experiment [1], 4.6 µM in experiment [2] and 0.304 µM in experiment [3].

As to `OCc1cccc(-c2nn3c(c2-c2ccc(F)cc2)CCC3)n1`, the results for the IC50 in experiment [1] and in experiment [3] were 5.62 µM and 11.8 µM, respectively.

In the case of `Cc1cccc(-c2nn3c(c2-c2ccnc4ccccc24)CCC3)n1`, the concentration for half-maximal inhibition (IC50) was determined as 0.28 µM in experiment [1], 0.68 µM in experiment [2] and 0.094 µM in experiment [3].

For the compound `Cc1cccc(-c2nn3c(c2-c2ccc(O)cc2)CCC3)n1`, the IC50 was 0.105 µM in experiment [1], 4.3 µM in experiment [2] and 0.022 µM in experiment [3].

Regarding `CCc1cccc(-c2nn3c(c2-c2ccnc4ccccc24)CCC3)n1`, the results for the IC50 in experiment [1], in experiment [2] and in experiment [3] were 0.5 µM, 0.62 µM and 0.143 µM, respectively.

For `Cc1cccc(-c2nn3c(c2-c2ccc(S(C)(=O)=O)cc2)CCC3)n1`, the IC50 in experiment [1] and in experiment [3] was > 20 µM throughout.

As to `Cc1cccc(-c2nn3c(c2-c2ccnc4cc(Cl)ccc24)CCC3)n1`, the IC50 in experiment [1] was found to be 0.727 µM; in experiment [2], 0.44 µM; in experiment [3] it was 0.093 µM.

As for `CCOc1ccc2c(-c3c(-c4cccc(C)n4)nn4c3CCC4)ccnc2c1`, the IC50 amounted to 0.152 µM in experiment [1], 0.059 µM in experiment [2] and 0.086 µM in experiment [3].

Consider `Clc1ccc2c(-c3c(-c4ccccn4)nn4c3CCC4)ccnc2c1`, for which the IC50 in experiment [1] is 0.282 µM; in experiment [2], 1.8 µM; in experiment [3], 0.196 µM.

In the case of `Cc1cccc(-c2nn3c(c2-c2ccc(F)c(F)c2)CCC3)n1`, the IC50 in experiment [1] was determined as 1.04 µM; in experiment [3], 1.51 µM.

As for `Fc1ccc(-c2c(-c3ccccn3)nn3c2CCC3)cc1`, the IC50 in experiment [1] is 3.33 µM; in experiment [2], > 20 µM; in experiment [3], 3.86 µM.
